Results on eleven molecules are retold here after US11697772B2, “Hydrotropic composition and its uses” (KEMIRA OYJ, priority 2017, dated 2023).

Series [1] is described as follows: Differential scanning calorimetry of IL/DPPC liposome mixtures (main phase transition). Conditions: for Loss of transition (concentration range within which the phase transition was no longer detected): DPPC liposomes 0.4 mM lipid, DSC heating scans. In kind it is physicochemical. How it is done: The median effective concentrations (EC50) were determined for each IL. Since the toxic effect was thought to be caused by permeation of these surface-active molecules into the cell wall of the bacteria, related interactions of ILs with biomimetic liposomes were investigated utilizing differential scanning calorimetry (DSC). In DSC experiments, dipalmitoyl phosphatidylcholine (DPPC) liposomes were used as biomimicking membranes and the change in the main phase transition temperature (Tm) of the DPPC bilayer was followed, as a function of the IL concentrations. Such measurements could potentially offer more information on how the aforementioned ILs interact with the lipid bilayers. Lastly, the critical micelle concentrations (CMC) were defined for the ILs. Based on the CMCs, it can be defined if the ILs are dissolved as singly dispersed molecules or form a dispersion of spherical micelles, or other self-assembled structures (aggregates). Therefore, it can be determined if the interactions with the bacteria or liposomes take place between IL aggregates or singly dispersed IL molecules.
The DSC experiments were performed in order to find out the IL concentrations that induce the drift in the DPPC bilayer phase transition temperature. FIG. 3 illustrates the representative endotherms, which were recorded during the second heating scans. Since the heating and the cooling scans were performed three times, the second heating endotherm was selected as the representative one. […] If the baseline variations observed during the first heating scans were not observed on the following two scans and with other concentrations of the same ILs, they were regarded as artefacts. […] Cooling scans (not shown) were recorded in order to follow the stability of the system, however, no further analysis of the cooling scans was performed. Such heating and cooling scans are standard in DSC experiments.
The DSC results are discussed in more detail in the following text for each IL carboxylate group. Instead of referring to the peak areas, which define the energy taken by the transition (cal/° C./mol), corresponding peak heights are referred to in the text, since the relative changes in the peak heights are more easily observed by visual inspection.
A stock solution of DPPC was prepared by dissolving DPPC in chloroform. Required amount of the stock solution was transferred into a glass test tube and the chloroform was evaporated under airflow in order to form a thin film of DPPC on the walls of the tube. The air-dried lipid film was held under vacuum desiccator at least for 2 h to remove the residual solvent. The lipid was dispersed into water to obtain a 4.0 mM liposome stock. The dispersion was incubated in an ultrasonication water bath for 30 min at 60° C. facilitating the formation of multilamellar liposomes.
DSC was utilized in observing the changes induced by the ILs in the organization of the lipid bilayers. Here DPPC was used because the Tm of the bilayer is well recognized—approximately 41.3° C. […] There are two additional transitions observed for DPPC aqueous solutions; the subtransition at 21° C. and the pretransition at 36° C.

The nature of series [2]: Critical micelle concentration by optical pendant drop method (surface tension). The conditions noted are these: in water, superscript L logarithmic fitting, S sigmoidal fitting. The format is physicochemical.
Excerpt: The surface-active molecules (surfactants) dissolve in aqueous solutions as monomers to certain concentration threshold, after which they start to build up into differing aggregates. This concentration threshold is called critical micellar concentration (CMC). However, for many surfactants the CMC is moreover a concentration range, not a specific concentration point, and the width of the range depends greatly on the structure of the compound. […] The optical pendant drop method using a contact angle meter (CAM 200, KSV Instruments, Espoo, Finland) was used for determining the CMCs. In short, a series of differing IL concentrations in water solution was investigated. A pendant-drop of a constant height was formed and the surface tension of the drop was determined based on the drop curvature by using a fitting method according to Young-Laplace equation. The surface tension was determined based on the curvature and plotted as a function of the IL concentration. The surface tension of the drop decreases as a function of increasing surfactant concentration because the singly dispersed IL molecules diffuse and orientate at the air-water interface and therefore reduce the surface tension. When the concentration reaches the CMC, the singly dispersed molecules form aggregates and no additional molecules diffuse to the surface of the drop. Therefore no change in surface tension is observed. The CMCs were determined based on the intersection point of two trend lines fitted based on the data. The surface tension was either plotted as a function of IL concentration or logarithm of the concentration and either sigmoidal or logarithmic fit, respectively, was used. The choice of method was dependent on which method provided the best fit.
The next series has as its system Vibrio fischeri bacteria. In words: Vibrio fischeri toxicity assay (Microtox, decay of bioluminescence). In kind it is cell-based. How it is done:
The toxicities were determined by exposing Vibrio fischeri marine bacteria to aqueous solutions of ILs in differing concentrations. These bacteria have successfully been used for IL toxicity assessments in a myriad of studies. A recent comparison was performed between V. fischeri and three other standardized toxicity assays utilizing aquatic organisms, namely Daphnia magna (a fresh water crustacean), Selenastrum capricomutum (a freshwater algae) and Phaeodactylum tricomutum (a seawater algae).
The toxicity measurements were performed from an ecotoxicological point of view, since ILs are potentially hazardous for the environment and particularly for organisms in aquatic environments. Therefore, V. fischeri marine bacteria were utilized in these measurements. EC50 values were determined for seven water-soluble surface-active ILs. The ILs in this study included Ch-, GND-, TMG-based ILs with straight and branched (iso and neo forms) fatty acid chains, namely isostearates, decanotes and neodecanoates. As a reference, the toxicities of the sodium salts of these carboxylates were measured in order to obtain information on the effect of the cation on the toxicities of the ILs.
The toxicities of the ILs were defined by measuring their EC50 values using V. fischeri bacteria and Microtox luminometer/thermostate apparatus (Modern Water, USA). The response measured in this assay is the decay of bioluminescence produced by the bacteria. In short, the bioluminescence was measured before the exposure on the potentially toxic compound to determine the baseline luminescence. Consequently, the bacteria were exposed on minimum four differing toxicant concentrations in 2% (w/v) NaCl solution and the decay in the luminescence was recorded. Based on the concentration-dependent decay the EC50 value was defined. The toxicities were defined at set time intervals of 5 and 15 minutes. Two independent measurements were performed for each IL as duplicates.

For series [3] the following is noted: DPPC liposomes, earlier DSC investigation; cited from earlier work.
Where [4] appears, read: Vibrio fischeri, 5 min incubation, 2% (w/v) NaCl solution, read-out: EC50 5min.
[5] abbreviates: Vibrio fischeri, 15 min incubation, 2% (w/v) NaCl solution, read-out: EC50 15min.
Setting [6] is: Aliivibrio fischeri, 5 min, Vibrio fischeri, 5 min incubation, 2% (w/v) NaCl solution, read-out: EC50 5min.
Setting [7] is: Aliivibrio fischeri, 0.25 h, Vibrio fischeri, 15 min incubation, 2% (w/v) NaCl solution, read-out: EC50 15min.

Where “and” joins values, the source holds several entries; their conditions need not be identical. Identical values can stand only once. Like-named read-outs stand apart in the source and are kept apart here.

On to “1,1,3,3-Tetramethylguanidinium isostearate [TMG Isostearate]”, for which, in series [1], the “Loss of transition (concentration range within which the phase transition was no longer detected)” value was 0.5 to 1.0 mM. Further, the “CMC (critical micelle concentration)” value in series [2] is listed as 0.30 ± 0.04^S mM. Moreover, the EC50 (in general, the concentration giving half of the maximal effect) in the series with Vibrio fischeri bacteria (setting [4]) was 94 ± 1 µM; with Vibrio fischeri bacteria (setting [5]), 62 ± 5 µM.

On to “1,1,3,3-tetramethylguanidinium neodecanoate [TMG Neodecanoate]”, for which, in series [2], the “CMC (critical micelle concentration)” value is 261 ± 11^L mM. Further, the results for the EC50 with Vibrio fischeri bacteria (setting [4]) and with Vibrio fischeri bacteria (setting [5]) were 700 ± 70 µM and 650 ± 70 µM, respectively.

`CCCCCCCCC(=O)[O-].C[N+](C)(C)CCO` [Ch nonanoate]: in series [3], the “highest concentration at which a peak for the Tm was still observed” value was 50 mM.

For the molecule `CC(C)CCCCCCCCCCCCCCC(=O)[O-].[Na+]` [Na Isostearate, sodium isostearate, reference compound], in series [1], the “Loss of transition (concentration range within which the phase transition was no longer detected)” value was in the range of 0.001 to 0.01 mM. Moreover, the “CMC (critical micelle concentration)” value in series [2] is given as 0.72 ± 0.06^L mM. For the same molecule, the EC50 in the series on Vibrio fischeri bacteria (setting [6]) came out at 110 ± 10 µM; with Vibrio fischeri bacteria (setting [7]), 81 ± 4 µM.

Regarding `CC(C)(C)CCCCCC(=O)[O-].[Na+]` [Na Neodecanoate, sodium neodecanoate, reference compound], the “Loss of transition (concentration range within which the phase transition was no longer detected)” value in series [1] lay in the range of 40 to 60 mM. In addition, the “CMC (critical micelle concentration)” value in series [2] is on record as 422 ± 38^L mM. Further, the EC50 in the series with Vibrio fischeri bacteria (Aliivibrio fischeri, 5 min, read-out: EC50 5min) came out at 500 ± 20 µM; in the series on Vibrio fischeri bacteria (Aliivibrio fischeri, 0.25 h, read-out: EC50 15min), 473 ± 6 µM.

For `CCCCCCCCCC(=O)[O-].[Na+]` [Na decanoate, sodium decanoate, reference compound], the “Tm of DPPC bilayer” value in series [1] (50 mM IL, 0.4 mM DPPC) was “above 35 °C”. For the same molecule, in series [2], the “CMC (critical micelle concentration)” value is 22±3 mM and 22 ± 3^L mM. Moreover, the EC50 in the series with Vibrio fischeri bacteria (setting [6]) and in the series on Vibrio fischeri bacteria (setting [7]) was 130 ± 20 µM throughout.

Turning to Choline isostearate [Ch Isostearate], the “Loss of transition (concentration range within which the phase transition was no longer detected)” value in series [1] was in the range of 0.5 to 1.0 mM. The results for the “CMC (critical micelle concentration)” value in series [2] and in series [2] (listed as Ch isostearate) were 0.50 ± 0.06^L mM and approximately 0.5 mM, respectively. Also, the EC50 in the series on Vibrio fischeri bacteria (setting [4]) was found to be 130 ± 20 µM; in the series on Vibrio fischeri bacteria (setting [5]) it was 74 ± 5 µM.

Consider “Guanidinium isostearate [GND Isostearate]”, for which, in series [1], the “Loss of transition (concentration range within which the phase transition was no longer detected)” value lay within 0.5 to 1.0 mM. The “CMC (critical micelle concentration)” value in series [2] is recorded as 0.31 ± 0.08^S mM. Further, the EC50 in the series on Vibrio fischeri bacteria (setting [4]) worked out at 98 ± 2 µM; in the series with Vibrio fischeri bacteria (setting [5]), 66 ± 5 µM.

Take choline decanoate [Ch Decanoate]: the “Loss of transition (concentration range within which the phase transition was no longer detected)” value in series [1] is 2.0 to 5.0 mM. Besides, the “concentrations at which the ILs affected the liposomes” value in series [1] (DPPC liposomes 0.4 mM, DSC) is 0.5 to 5 mM. For the same molecule, the EC50 in the series with Vibrio fischeri bacteria (setting [4]) and in the series with Vibrio fischeri bacteria (setting [5]) was 100 ± 20 µM each time.

Take choline neodecanoate [Ch Neodecanoate]: the “highest concentration at which the transition peak was still observed” value in series [1] (0.4 mM DPPC, no higher concentrations measured) was 60 mM. Besides, the “CMC (critical micelle concentration)” value in series [2] is listed as 319 ± 13^L mM. For the same molecule, the figures for the EC50 with Vibrio fischeri bacteria (setting [4]) and in the series with Vibrio fischeri bacteria (setting [5]) were 560 ± 60 µM and 520 ± 80 µM, respectively.

Turning to “guanidinium neodecanoate [GND Neodecanoate]”, the “Loss of transition (concentration range within which the phase transition was no longer detected)” value in series [1] was in the range of 15.0 to 25.0 mM. Besides, in series [2], the “CMC (critical micelle concentration)” value is 118 ± 2^L mM. The results for the EC50 in the series on Vibrio fischeri bacteria (setting [4]) and in the series with Vibrio fischeri bacteria (setting [5]) were 730 ± 90 µM and 690 ± 70 µM, respectively.
